Assay results taken from US20190141999A1, “Methods For Repelling Blood-Sucking And Biting Insects, Ticks And Mites” (The United States of America, as represented by the …, priority 2017, published 2019).
Read-outs that look alike come from different tables or passages of the source. Marks after values point to notes of the source that are not given here.

What was measured:
stable flies [1] = conditions: for knock-down times: 20 mg and 10 mg doses; for knock-down: lowest dose, 2 mg
stable flies [2] = test: stable fly laboratory repellent bioassay (blood-feeding); assay type: in vivo, Stomoxys calcitran
Description: Comparisons of coconut oil, coconut FFA, and lauric acid against stable fly blood-feeding: Using our modified stable fly laboratory repellent bioassay, we tested coconut oil, coconut FFA and its major compositional compound, lauric acid, for their repellency against stable flies.
In FIG. 11, repellent activity tests were conducted under the laboratory conditions (22° C., 50% RH), 48-hr starved stable flies were used, and a total of at least 5 replicates were accumulated.

stable flies [3] = test: as above; assay type: in vivo, Stomoxys calcitran; conditions: for repellency of C8 to C18 acids: FIG. 3
bed bugs [4] = test: bed bug choice among treated tents (harborages); assay type: in vivo, Cimex letularius; conditions: control (hexane) vs treated tent
Excerpt: (§1) Bed bugs chose to rest on control tents (hexane-treated) when given a choice of coconut FFA-treated tent (FIG. 9C). This effect lasted on tents treated 14 d earlier.

bed bugs [5] = test: bed bug petri-dish repellency assay; assay type: in vivo, Cimex letularius
Excerpt: as §1

Aedes aegypti [6] = test: minimum effective dosage for biting protection; assay type: in vivo; conditions: N = 3-5
Aedes aegypti [7] = test: arm-in-cage assay, biting protection; assay type: in vivo; conditions: 1st hour, N = 3
horn flies [8] = test: horn fly blood-feeding repellency; assay type: in vivo, Haematobia irritans
Description: Comparisons of coconut FFA, methyl laurate, and lauric acid against horn fly blood-feeding: We also tested coconut FFA and its major compositional compound, lauric acid, for their repellency against horn flies. […] F=41.5 P<0.0001). Dose response curves of repellency against horn flies from coconut FFA and lauric acid: […] F=4.08-4.38 P<0.05). […] A 50% repellency was shown when the dose was reduced to 2 mg. No significant differences in the least repellency concentrations were found among the two repellent candidates, with average 7 mg of both coconut FFA and lauric acid was needed.

ticks = test: tick repellency (species not stated); assay type: in vivo; conditions: at 1.25%
horn flies [9] = test: mortality of horn flies after exposure; assay type: in vivo
Excerpt: The present invention discloses a blood-sucking insects and biting insects (e.g., stable flies, horn flies, ticks and mites repellent compounds (e.g., lauric acid), identified from coconut oil that is listed as a GRAS (Generally Recognized as Safe, http://www.fda.gov/Food/IngredientsPackagingLabeling/GRAS/) substance. Coconut oil is an edible oil extracted from the kernel or meat of mature coconuts harvested from the coconut palm (https://en.wikipedia.org/wiki/Coconut_oil). It contains a high level of low molecular weight saturated fatty acids (Gervajio, G. C., Fatty acids and derivatives from coconut oil, IN: Bailey's Industrial Oil and Fat Products, Sixth Edition, Six Volume Set, Fereidoon Shahidi, Ed., 2005, John Wiley & Sons, Inc.). […] Both have over 2-weeks longevity deterring stable fly feeding (>90% repellency). […] This compound is listed as one of CFR 21 products that is permitted for direct addition to food for human consumption by FDA (Code of Federal Regulations, Title 21). […]

## CCCCCCCC(=O)OC [C8 Me, Methyl octanoate]
Stable flies [1]
  knock-down times: significantly shorter knock-down times
  knock-down: no knock-down
Stable flies [2]; 2 mg dose
  repellency against stable flies: strongest repellency
Stable flies [2]; 20 mg dosage
  repellency against stable flies: 100%

## CCCCCCCC(=O)O [C8 acid, Caprylic acid]
Stable flies [3]; dose not stated
  repellency of C8 to C18 acids: > 80%

## CCCCCCCCC(=O)O [C9]
Stable flies [3]; dose not stated
  repellency of C8 to C18 acids: strongest repellency

## CCCCCCCCCC(=O)OC [C10 Me, Methyl decanoate]
Stable flies [1]
  knock-down times: significantly shorter knock-down times
Stable flies [1]; in vivo
  mortality: ~100%
Stable flies [1]; stable flies
  knock-down time: less than 3 mins
  toxic effect: most active toxicant
Stable flies [1]; stable flies, listed as 10 Me ester
  time to mortality after exposure: 10 to 15 min
Stable flies [1]; stable flies, listed as C10 methyl ester
  time to mortality after exposure: < 10 min
Stable flies [2]; 20 mg dosage
  repellency against stable flies: 100%

## CCCCCCCCCCC(=O)O [C11]
Stable flies [3]; dose not stated
  repellency of C8 to C18 acids: strongest repellency

## CCCCCCCCCCCCC(=O)O [C13]
Stable flies [3]; dose not stated
  repellency of C8 to C18 acids: strongest repellency

## CCN(CC)C(=O)c1cccc(C)c1 [DEET, N,N-diethyl-m-toluamide, reference compound]
Bed bugs [4]
  choice of control tents over treated tents: no longer significant at 7 d and 14 d
Bed bugs [5]; 7th day after application (FIG. 9B)
  repellency remaining: below 40%
Aedes aegypti [6]
  Minimum effective dosage required for biting protection: 0.047 ± 0.000 mg/cm^2
Aedes aegypti [7]; 6.25%
  biting protection: 58-88* %
Aedes aegypti [7]; 12.50%
  biting protection: 77-97* %
Aedes aegypti [7]; 25% (0.42 mg/cm^2)
  biting protection: ≈93* %

## CCCCCCCCCCCC(=O)O [lauric acid]
Bed bugs [5]; at 5%
  effectiveness duration: up to 24 hours
  repellency against bedbugs: 100%
Aedes aegypti [6]
  Minimum effective dosage required for biting protection: 0.75 mg/cm^2
Aedes aegypti [6]; listed as Lauric acid
  Minimum effective dosage required for biting protection: 0.750 ± 0.000 mg/cm^2
Aedes aegypti [7]; 6.25%
  biting protection: 20 ± 0%
Aedes aegypti [7]; 12.50%
  biting protection: 20 ± 0%
Aedes aegypti [7]; 25% (0.42 mg/cm^2)
  biting protection: 73%
Aedes aegypti [7]; 25% (0.42 mg/cm^2), listed as Lauric acid
  biting protection: 74 ± 6%
Aedes aegypti [7]; 50%
  biting protection: 60 ± 11%
Horn flies [8]; 2 mg dose
  repellency against horn flies: 50%
Horn flies [8]; in vivo
  least repellency concentration, average amount needed: 7 mg
Stable flies [1]; stable flies
  toxic effect: no toxic effect
Stable flies [2]; 2 mg dose
  repellency against stable flies: No repellency
Stable flies [2]; in vivo
  LR50 (95% C.I.), least repellency concentration: 3.69 (3.23-6.53) mg/24 cm^2
  LR90 (95%, C.I.), least repellency concentration: 13.61 (9.11-32.59) mg/24 cm^2
  average amount needed to achieve 90% repellency: 13 mg
Stable flies [3]; 2-week longevity test (FIG. 5)
  repellency in longevity test: 94%

## CCCCCCCCCCCC(=O)OC [methyl laurate]
ticks
  repellency against ticks: 100%
Horn flies [9]; horn flies
  time to mortality after exposure: 15 to 20 min
Horn flies [9]; horn flies after exposure
  mortality: 100%
Stable flies [1]
  knock-down: no knock-down
Stable flies [1]; stable flies
  mean LD: 11 to 20 min
  time to mortality after exposure: 15 to 20 min
  toxic effect: least toxic compound
Stable flies [1]; stable flies after exposure
  mortality: 100%
Stable flies [3]; 20 mg dosage, listed as C12 Me
  repellency against stable flies: 100%
Stable flies [3]; initial bioassays, dose not stated
  repellency of methyl esters: ~100%

## CCCCCCCC/C=C\CCCCCCCC(=O)OC [methyl oleate]
Stable flies [2]; 20 mg dosage
  repellency against stable flies: did not showed significant repellency
